Measurements taken from PMC10170656 (RSC Chemical Biology, 2023).
Entries after “also recorded” stand apart in the source; their conditions may differ.

What was measured:
[1] = Survival curve and cytotoxicity in HCT116 cells; format: cell-based; conditions: human, HCT116 cells (colon cancer cell line)
TDP2 = biological target: T1, TDP2 (Homo sapiens, UniProt O95551); format: biochemical
T1 sequence (O95551 1-362): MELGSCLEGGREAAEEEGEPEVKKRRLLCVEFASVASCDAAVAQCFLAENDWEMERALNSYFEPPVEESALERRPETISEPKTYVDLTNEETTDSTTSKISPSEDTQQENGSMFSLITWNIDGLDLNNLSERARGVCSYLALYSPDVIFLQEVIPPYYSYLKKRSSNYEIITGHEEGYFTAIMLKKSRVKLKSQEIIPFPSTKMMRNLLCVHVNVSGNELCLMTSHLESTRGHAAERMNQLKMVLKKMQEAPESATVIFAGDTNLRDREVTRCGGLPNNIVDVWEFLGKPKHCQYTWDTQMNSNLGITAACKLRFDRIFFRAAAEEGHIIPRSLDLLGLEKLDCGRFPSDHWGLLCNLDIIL

HCT116 cells = assay: Synergistic effect of TDP1 inhibitors with camptothecin; format: cell-based, human; conditions: concentrations below CC50, 72 h
TDP1 = TDP1 (Homo sapiens, UniProt Q9NUW8); assay: biochemical; conditions: TDP1 IC50, Table 2: triazole, ether and phthalic acid isostere derivatives
TDP1, sequence (Q9NUW8 whole entry): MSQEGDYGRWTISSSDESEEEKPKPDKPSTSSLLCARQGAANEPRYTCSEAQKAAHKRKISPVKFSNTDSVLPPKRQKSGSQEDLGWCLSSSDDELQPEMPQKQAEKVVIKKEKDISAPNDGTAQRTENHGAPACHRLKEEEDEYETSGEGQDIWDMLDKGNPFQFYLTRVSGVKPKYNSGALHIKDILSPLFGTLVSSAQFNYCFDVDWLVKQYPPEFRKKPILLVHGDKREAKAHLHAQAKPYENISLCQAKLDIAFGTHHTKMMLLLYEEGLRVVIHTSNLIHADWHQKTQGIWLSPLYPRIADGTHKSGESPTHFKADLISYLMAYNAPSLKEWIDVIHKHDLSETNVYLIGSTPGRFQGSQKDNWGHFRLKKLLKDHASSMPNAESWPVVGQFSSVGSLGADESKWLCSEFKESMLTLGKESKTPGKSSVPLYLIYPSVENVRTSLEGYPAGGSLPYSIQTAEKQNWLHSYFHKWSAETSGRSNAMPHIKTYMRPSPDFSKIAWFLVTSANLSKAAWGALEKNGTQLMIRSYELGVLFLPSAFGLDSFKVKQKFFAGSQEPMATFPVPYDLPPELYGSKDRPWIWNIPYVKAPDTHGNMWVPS

inhibitory potency against TDP1 relative to TDP2 (TDP2)	IC50 (TDP1)	SMILES	CC50 at 72 h [1]	synergy with the TOP1 inhibitor CPT (HCT116 cells)
8 fold	3.3 ± 0.2 µM	N#Cc1ccc(-c2ccc(Cn3cc(-c4ccc(-c5nc6cc(-c7ccccc7)ccn6c5Nc5ccc(C(=O)O)cc5)cc4)nn3)cc2)nc1 [Compound 7d]	136 µM	act synergistically; also recorded: synergize
–	> 100 µM	O=C(O)c1ccc(Nc2c(-c3ccccc3)nc3cc(-c4ccccc4)ccn23)cc1C(=O)O [Compound 9a, 4-((2,7-diphenylimidazo[1,2-a]pyridin-3-yl)amino)phthalic acid]	–	–
–	11.3 ± 1.93 µM	O=C(O)c1ccc(Nc2c(-c3ccc(CCOCc4ccc(-c5ccccc5)cc4)cc3)nc3cc(-c4ccccc4)ccn23)cc1C(=O)O [Compound 9b, 4-((2-(4-(2-([1,1'-biphenyl]-4-ylmethoxy)ethyl)phenyl)-7-phenylimidazo[1,2-a]pyridin-3-yl)amino)phthalic acid]	–	–
–	19.8 ± 1.35 µM	O=C(O)c1ccc(Nc2c(-c3ccc(CCOCc4ccc(-c5ccccn5)cc4)cc3)nc3cc(-c4ccccc4)ccn23)cc1C(=O)O [Compound 9c, 4-((7-phenyl-2-(4-(2-((4-(pyridin-2-yl)benzyl)oxy)ethyl)phenyl)imidazo[1,2-a]pyridin-3-yl)amino)phthalic acid]	–	–
